# Data: patent publication US20040242870A1, “Antiviral methods and compounds” (priority 2000, published 2004)
# Tests used:
# [1] = test system: HIV-1 strain RoJo; experiment: PBMC time-of-addition assay (RT in cell-free supernatant at 6 days); format: cell-based; conditions: for increase in IC50 (loss in potency): 24 h pretreatment; for IC50: Human immunodeficiency virus 1, PBMC
# Protocol: Peripheral blood monocular cells (PBMCs) were obtained from normal hepatitis and HIV-1 negative donors by ficoll hypaque gradient separation. The mononuclear cells were washed to remove residual separation media, counted, viability determined and resuspended in RPMI 1640 medium supplemented with 15 % FBS (heat inactivated), 2 mM L-glutamine, 100 U/mL penicillin, 100 μg/mL streptomycin, and 10 μg/mL gentamycin with 2 μg/mL phytohemagluttin (PHA) at 1×10^6 cells/mL. The cells were cultured for 48 to 72 h at 37° C., 5% CO2. Following incubation, cells were collected by centrifugation, washed and resuspended in RPMI 1640 supplemented with 15% FBS (heat inactivated), 2 mM L-glutamine, 100 U/mL penicillin, 100 μg/mL streptomycin, and 10 μg/mL gentamycin with 20 U/mL recombinant IL-2 (R & D Systems, Minneapolis, Minn.). IL-2 was included in the culture medium to maintain the cell division initiated by the PHA mitogenic stimulation, and promote optimal growing conditions for the PBMCs. The cultures were then maintained until use by ½ culture volume change with fresh IL-2 containing medium every 3 days.
# (§1) Human peripheral blood mononuclear cells from a minimum of 2 donors, that have been blasted with PHA and IL-2, were counted, viability determined by Trypan Blue dye exclusion and mixed in equal ratios. Pooled donors were used to minimize the variability observed between individual donors which results from quantitative and qualitative differences in HIV infection and overall response to the PHA and IL-2 of primary lymphocyte populations. The cells were resuspended at 1×10^6 cells/mL in RPMI 1640 without phenol red supplemented with 15% Fetal Bovine Serum (heat inactivated), 2 mM L-glutamine, 100 U/mL penicillin, 100 μg/mL streptomycin, 10 μg/Ln gentamycin and IL-2 (20 U/mL, R&D Systems, Minneapolis, Minn.). Fifty microliters of cells were then distributed to the inner 60 wells of a 96 well round bottom microtiter culture plate in a standard format developed by the Infectious Disease Research department of Southern Research Institute. Each plate contains cell control wells (cells only), virus control wells (cells plus virus), and experimental wells (drug plus cells plus virus). Alternatively, cells were cultured in T25 cm^2 or T75 cm^2 tissue culture flasks at a starting density of 1×10^6 cells per ml. Serially diluted compounds were added to the microtiter plate or tissue culture flask followed by the appropriate pre-titered strain of HIV-1. For virus replication inhibition experiments the HIV-1 strain RoJo was used. This is a low passage presumable subtype B pediatric isolate with a syncytium inducing (SI) phenotype in MT-2 cells isolated by Southern Research Institute personnel. All samples were assayed in triplicate where possible with an accompanying determination of compound toxicity. The final volume per well in the microtiter plates was 200 μL. The final volume in the tissue culture flask varied depending upon experimental design and flask size. Assays were incubated for 6 days in a humidified atmosphere at 37° C., 5% CO2, after which supernatants were collected, for analysis of RT activity and cell viability by MTS dye reduction. Culture were also examined microscopically, any abnormalities noted, and in the case of tissue culture flasks cell counts and viability determined by Trypan Blue Dye exclusion.
# Time-of-addition assays were performed with PBMCs in two ways. For both assays, PBMCs were isolated and cultured under the conditions as described above. Time-of-addition assays were carried out in either a tissue culture flask format (T-75 cm^2) or in microtiter wells. In both cases due to the lack of plastic adherence and heterogeneity of the PBMC population for susceptibility to infection, it was not possible to use complete removal of virus following a timed adsorption to synchronize the infection and limit the assay to a single round of infection. […]
# [2] = test system: PBMCs; experiment: Cell cycle analysis of PBMCs by flow cytometry; format: cell-based, Human
# Protocol: Flow cytometry studies were carried out on PHA/IL-2 induced PBMCs treated for 6 days with the various test compounds. Prior to flow cytometry the PBMCs were washed, counted and 1×10^6 cells resuspended in PBS and stained for CD4 or CD8 surface markers using anti-CD4.PE or CD8.PE (both from PharMingen) for 30 min at 4° C. The PBMC were then washed, fixed (Cytofix) and permeabilized (Cytoperm) followed by staining for apoptosis-related DNA damage. Initial experiments used the BrdU Flow Kit from PharMigen (2354KK). This kit with the appropriate software should have yielded percent apoptosis along with the number of cells in each phase of the cell cycle. However, we were not successful with this kit and subsequently used the data to look at only the distribution in the cell cycle of the PBMCs following drug treatment. We were successful in detecting apoptosis in PBMCs with the PharMingen APO-BRDU™ kit (6576KK). Using this kit, we were not able to co-stain for CD4 and CD8 due to the fluorescent tags used in the APO-BRDU™ kit. For both kits, manufacturers instructions were followed for staining and analysis of the samples. Following the appropriate staining protocol the cells were analyzed using a Becton Dickinson (Bedford, Mass.) FACSSort
# (§2) Experiments were conducted using flow cytometry to assess the effect of the IMG compounds and cannabidiol on induction of apoptosis. Briefly, compound-treated PBMCs were assayed for apoptosis using a BrdU methodology. Table 6 summarizes the effects of the IMG Compounds on cell cycle and cell viability by Trypan Blue Dye exclusion. Table 7 reduces the changes in the cell cycle to a ratio based upon the percent of cells in G2-G1. G2-G1 cells represent transition cells that are in either G2 or G1, that cannot be distinguished based upon DNA content by flow cytometry. […] This ratio cannot be used as a quantitative factor to measure fold-increases or decreases between population, but rather to access trends in the cell cycle.
# [3] = test system: PBMCs; experiment: PBMC viability by Trypan Blue dye exclusion; format: cell-based, Human
# Text: as §1, §2
# [4] = 4 h, −4 h pre (relative to infection)
# [5] = pre-treat 0 h prior to infection
# [6] = pre-treat 2 h prior to infection
# [7] = pre-treat 4 h prior to infection
# [8] = pre-treat 24 h prior to infection
smiles,measurement,setting,value
"C=C(C)[C@@H]1CCC(C)=C[C@H]1c1c(O)cc(CCCCC)cc1O [Cannabidiol, reference compound]",loss of activity (potency),"[1]; 2 h pre-treatment, listed as cannabidiol",approximately 10 fold
same,regain of potency (decrease in IC50),[1]; 4 h pretreatment,"activity at 2, regain 3.3-fold"
same,regain of potency (decrease in IC50),"[1]; 4 h pretreatment, listed as cannabidiol",3.3 fold
same,increase in IC50 (loss in potency),[1],at 4 h then a 17-fold
same,increase in IC50 (loss in potency),[1]; listed as cannabidiol,17 fold
same,IC50,[1]; [4],12.1 µM
same,IC50,"[1]; 6 h, 6 h post infection",12.1 µM
same,IC50,[1]; at infection,13.8 µM
same,IC50,[1]; [5],0.58 µM
same,IC50,[1]; [6],5 µM
same,IC50,[1]; [7],1.5 µM
same,IC50,[1]; [8],10.5 µM
same,% 7-AAD positive per cell cycle phase G0-G1,"[2]; 1 μM, HIV +",94%
same,% 7-AAD positive per cell cycle phase G2-G1,"[2]; 1 μM, HIV +",2%
same,% 7-AAD positive per cell cycle phase G2-M,"[2]; 1 μM, HIV +",5.7%
same,% of cells in cell cycle phase,"[2]; 1 μM, HIV +",0%
same,% 7-AAD positive per cell cycle phase G0-G1,"[2]; 1 μM, HIV −",91%
same,% 7-AAD positive per cell cycle phase G2-G1,"[2]; 1 μM, HIV −",2%
same,% 7-AAD positive per cell cycle phase G2-M,"[2]; 1 μM, HIV −",9.2%
same,% of cells in cell cycle phase,"[2]; 1 μM, HIV −",0%
same,% 7-AAD positive per cell cycle phase G0-G1,"[2]; 25 μM, HIV +",96%
same,% 7-AAD positive per cell cycle phase G2-G1,"[2]; 25 μM, HIV +",2%
same,% 7-AAD positive per cell cycle phase G2-M,"[2]; 25 μM, HIV +",0%
same,% of cells in cell cycle phase,"[2]; 25 μM, HIV +",4.2%
same,% 7-AAD positive per cell cycle phase G0-G1,"[2]; 25 μM, HIV −",96.4%
same,% 7-AAD positive per cell cycle phase G2-G1,"[2]; 25 μM, HIV −",2%
same,% 7-AAD positive per cell cycle phase G2-M,"[2]; 25 μM, HIV −",0.05%
same,% of cells in cell cycle phase,"[2]; 25 μM, HIV −",3.6%
same,% 7-AAD positive per cell cycle phase G0-G1,"[2]; 35 μM, HIV +",98%
same,% 7-AAD positive per cell cycle phase G2-G1,"[2]; 35 μM, HIV +",2%
same,% 7-AAD positive per cell cycle phase G2-M,"[2]; 35 μM, HIV +",0%
same,% of cells in cell cycle phase,"[2]; 35 μM, HIV +",2.6%
same,% 7-AAD positive per cell cycle phase G0-G1,"[2]; 35 μM, HIV −",95.5%
same,% 7-AAD positive per cell cycle phase G2-G1,"[2]; 35 μM, HIV −",2%
same,% 7-AAD positive per cell cycle phase G2-M,"[2]; 35 μM, HIV −",0%
same,% of cells in cell cycle phase,"[2]; 35 μM, HIV −",4.5%
same,% Viable Cells,"[3]; 1 μM, HIV +",94%
same,% Viable Cells,"[3]; 1 μM, HIV −",85%
same,% Viable Cells,"[3]; 25 μM, HIV +",55%
same,% Viable Cells,"[3]; 25 μM, HIV −",86%
same,% Viable Cells,"[3]; 35 μM, HIV +",61%
same,% Viable Cells,"[3]; 35 μM, HIV −",61%
"COc1cc(C(C)(C)CCCC(C)C)cc(OC)c1OC [IG-07, 1-(1,1,5Trimethylhexyl)-3,4,5-trimethoxybenzene]",increase in IC50 (loss in potency),[1],approximately 2 fold
same,IC50,[1]; [4],39.5 µM
same,IC50,"[1]; 6 h, 6 h post infection",46.1 µM
same,IC50,[1]; at infection,67 µM
same,IC50,[1]; [5],6.9 µM
same,IC50,[1]; [6],6.1 µM
same,IC50,[1]; [7],5.3 µM
same,IC50,[1]; [8],10.8 µM
same,% 7-AAD positive per cell cycle phase G0-G1,"[2]; 5 μM, HIV +",89%
same,% 7-AAD positive per cell cycle phase G2-G1,"[2]; 5 μM, HIV +",2%
same,% 7-AAD positive per cell cycle phase G2-M,"[2]; 5 μM, HIV +",10%
same,% of cells in cell cycle phase,"[2]; 5 μM, HIV +",0%
same,% 7-AAD positive per cell cycle phase G0-G1,"[2]; 5 μM, HIV −",89%
same,% 7-AAD positive per cell cycle phase G2-G1,"[2]; 5 μM, HIV −",2%
same,% 7-AAD positive per cell cycle phase G2-M,"[2]; 5 μM, HIV −",6.9%
same,% of cells in cell cycle phase,"[2]; 5 μM, HIV −",0%
same,% 7-AAD positive per cell cycle phase G0-G1,"[2]; 100 μM, HIV +",95%
same,% 7-AAD positive per cell cycle phase G2-G1,"[2]; 100 μM, HIV +",2%
same,% 7-AAD positive per cell cycle phase G2-M,"[2]; 100 μM, HIV +",3.1%
same,% of cells in cell cycle phase,"[2]; 100 μM, HIV +",1.7%
same,% 7-AAD positive per cell cycle phase G0-G1,"[2]; 100 μM, HIV −",94%
same,% 7-AAD positive per cell cycle phase G2-G1,"[2]; 100 μM, HIV −",2%
same,% 7-AAD positive per cell cycle phase G2-M,"[2]; 100 μM, HIV −",0.2%
same,% of cells in cell cycle phase,"[2]; 100 μM, HIV −",6%
same,% Viable Cells,"[3]; 5 μM, HIV +",94%
same,% Viable Cells,"[3]; 5 μM, HIV −",92%
same,% Viable Cells,"[3]; 100 μM, HIV +",55%
same,% Viable Cells,"[3]; 100 μM, HIV −",50%
"CC(C)=CCCC1(C)CCc2c(O)cc(C(C)(C)CCCC(C)C)cc2O1 (centres unmarked) [IG-08, 3,4-Dihydro-2-methyl-2-(4-methyl-3-pentenyl)-7-(1,1,5-trimethylhexyl)-2H-1-benzopyran-5-ol]",decrease in IC50,[1]; 4 h pretreatment,4-fold decrease in
same,IC50,[1]; [4],6.2 µM
same,IC50,"[1]; 6 h, 6 h post infection",22.5 µM
same,IC50,[1]; at infection,15.7 µM
same,IC50,[1]; [5],14.2 µM
same,IC50,[1]; [6],10.4 µM
same,IC50,[1]; [7],4.1 µM
same,IC50,[1]; [8],11.9 µM
same,% 7-AAD positive per cell cycle phase G0-G1,"[2]; 15 μM, HIV +",98%
same,% 7-AAD positive per cell cycle phase G2-G1,"[2]; 15 μM, HIV +",2%
same,% 7-AAD positive per cell cycle phase G2-M,"[2]; 15 μM, HIV +",0.08%
same,% of cells in cell cycle phase,"[2]; 15 μM, HIV +",2.4%
same,% 7-AAD positive per cell cycle phase G0-G1,"[2]; 15 μM, HIV −",91%
same,% 7-AAD positive per cell cycle phase G2-G1,"[2]; 15 μM, HIV −",2%
same,% 7-AAD positive per cell cycle phase G2-M,"[2]; 15 μM, HIV −",8.7%
same,% of cells in cell cycle phase,"[2]; 15 μM, HIV −",0%
same,% 7-AAD positive per cell cycle phase G0-G1,"[2]; 30 μM, HIV +",99%
same,% 7-AAD positive per cell cycle phase G2-G1,"[2]; 30 μM, HIV +",2%
same,% 7-AAD positive per cell cycle phase G2-M,"[2]; 30 μM, HIV +",0.15%
same,% of cells in cell cycle phase,"[2]; 30 μM, HIV +",0.9%
same,% 7-AAD positive per cell cycle phase G0-G1,"[2]; 30 μM, HIV −",98%
same,% 7-AAD positive per cell cycle phase G2-G1,"[2]; 30 μM, HIV −",2%
same,% 7-AAD positive per cell cycle phase G2-M,"[2]; 30 μM, HIV −",0.6%
same,% of cells in cell cycle phase,"[2]; 30 μM, HIV −",1%
same,% Viable Cells,"[3]; 15 μM, HIV +",94%
same,% Viable Cells,"[3]; 15 μM, HIV −",89%
same,% Viable Cells,"[3]; 30 μM, HIV +",67%
same,% Viable Cells,"[3]; 30 μM, HIV −",62%
